Data reported in PubChem BioAssay AID1963866 (Molecular Pharmacology Branch, DTP, NCI, 2024).

Tested on: PDC KRAS tumor spheroids with HUVEC/MSC, viability
Test: Anticancer human tumor 349418-098-R-PDC patient-derived lung adenocarcinoma cell line growth inhibition [KRAS2]
Details: for IC50: curve of first compound; for viability, T/C: stronger effect = lower value
Method in brief: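 KRAS-mutant tumor cells were grown as spheroids with HUVEC endothelial cells and human MSCs as stroma. Targeted agents were tested alone and with KRAS pathway inhibitors. Doses started at or near clinical Cmax, or 10 microM, descending half-log.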

[1] = second compound 0.0316 µM, first compound 0.0316 µM
[2] = second compound 0.0316 µM, first compound 0.1 µM
[3] = second compound 0.0316 µM, first compound 0.316 µM
[4] = second compound 0.0316 µM, first compound 1 µM
[5] = second compound 0.0316 µM, first compound 3.16 µM
[6] = second compound 0.0316 µM, first compound 10 µM
[7] = second compound 0.1 µM, first compound 0.0316 µM
[8] = second compound 0.1 µM, first compound 0.1 µM
[9] = second compound 0.1 µM, first compound 0.316 µM
[10] = second compound 0.1 µM, first compound 1 µM
[11] = second compound 0.1 µM, first compound 3.16 µM
[12] = second compound 0.1 µM, first compound 10 µM
[13] = second compound 0.316 µM, first compound 0.0316 µM
[14] = second compound 0.316 µM, first compound 0.1 µM
[15] = second compound 0.316 µM, first compound 0.316 µM
[16] = second compound 0.316 µM, first compound 1 µM
[17] = second compound 0.316 µM, first compound 3.16 µM
[18] = second compound 0.316 µM, first compound 10 µM
[19] = second compound 1 µM, first compound 0.0316 µM
[20] = second compound 1 µM, first compound 0.1 µM
[21] = second compound 1 µM, first compound 0.316 µM
[22] = second compound 1 µM, first compound 1 µM
[23] = second compound 1 µM, first compound 3.16 µM
[24] = second compound 1 µM, first compound 10 µM
[25] = second compound 3.16 µM, first compound 0.0316 µM
[26] = second compound 3.16 µM, first compound 0.1 µM
[27] = second compound 3.16 µM, first compound 0.316 µM
[28] = second compound 3.16 µM, first compound 1 µM
[29] = second compound 3.16 µM, first compound 3.16 µM
[30] = second compound 3.16 µM, first compound 10 µM
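Also: spheroids exposed to compounds for seven days before readout.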

COc1cc(Nc2ncc3c(n2)-c2ccc(Cl)cc2C(c2c(F)cccc2OC)=NC3)ccc1C(=O)O + C=CC(=O)N1CCN(c2nc(OCC3CCCN3C)nc3c2CCN(c2cccc4cccc(C)c24)C3)CC1CC#N
IC50 (second compound 0.0316 µM): 41 nM
IC50 (second compound 0.1 µM): 55.2 nM
IC50 (second compound 0.316 µM): < 31.6 nM
IC50 (second compound 1 µM): < 31.6 nM
IC50 (second compound 3.16 µM): < 31.6 nM
viability, T/C [1]: 55.8%
viability, T/C [2]: 29.1%
viability, T/C [3]: 33.7%
viability, T/C [4]: 28.3%
viability, T/C [5]: 28.1%
viability, T/C [6]: 21.2%
viability, T/C [7]: 60.8%
viability, T/C [8]: 36.3%
viability, T/C [9]: 36.3%
viability, T/C [10]: 26.1%
viability, T/C [11]: 28.2%
viability, T/C [12]: 25.4%
viability, T/C [13]: 49.7%
viability, T/C [14]: 20.5%
viability, T/C [15]: 27.8%
viability, T/C [16]: 31.9%
viability, T/C [17]: 20.2%
viability, T/C [18]: 19.4%
viability, T/C [19]: 24%
viability, T/C [20]: 24%
viability, T/C [21]: 21.8%
viability, T/C [22]: 19.7%
viability, T/C [23]: 16.2%
viability, T/C [24]: 17%
viability, T/C [25]: 0.09%
viability, T/C [26]: 0.09%
viability, T/C [27]: 0.11%
viability, T/C [28]: 0.08%
viability, T/C [29]: 0.49%
viability, T/C [30]: 0.12%

COc1cc2nccc(Oc3ccc(NC(=O)C4(C(=O)Nc5ccc(F)cc5)CC4)cc3)c2cc1OC + C=CC(=O)N1CCN(c2nc(OCC3CCCN3C)nc3c2CCN(c2cccc4cccc(C)c24)C3)CC1CC#N
IC50 (second compound 0.0316 µM): 1560 nM
IC50 (second compound 0.1 µM): 1570 nM
IC50 (second compound 0.316 µM): 1530 nM
IC50 (second compound 1 µM): 588 nM
IC50 (second compound 3.16 µM): < 31.6 nM
viability, T/C [1]: 96.3%
viability, T/C [2]: 96.9%
viability, T/C [3]: 92.2%
viability, T/C [4]: 72.5%
viability, T/C [5]: 10.1%
viability, T/C [6]: 19.4%
viability, T/C [7]: 88.5%
viability, T/C [8]: 95.8%
viability, T/C [9]: 93.7%
viability, T/C [10]: 74.6%
viability, T/C [11]: 7.5%
viability, T/C [12]: 15.7%
viability, T/C [13]: 93.2%
viability, T/C [14]: 88.6%
viability, T/C [15]: 85.3%
viability, T/C [16]: 72.8%
viability, T/C [17]: 7.47%
viability, T/C [18]: 15.3%
viability, T/C [19]: 73.5%
viability, T/C [20]: 79.7%
viability, T/C [21]: 68.4%
viability, T/C [22]: 33.7%
viability, T/C [23]: 1.78%
viability, T/C [24]: 0.85%
viability, T/C [25]: 0.14%
viability, T/C [26]: 0.28%
viability, T/C [27]: 0.29%
viability, T/C [28]: 0.22%
viability, T/C [29]: 0.19%
viability, T/C [30]: 0.14%

Cn1ncnc1[C@H]1c2n[nH]c(=O)c3cc(F)cc(c23)N[C@@H]1c1ccc(F)cc1 + C=CC(=O)N1CCN(c2nc(OCC3CCCN3C)nc3c2CCN(c2cccc4cccc(C)c24)C3)CC1CC#N
IC50 (second compound 0.0316 µM): > 100 nM
IC50 (second compound 0.1 µM): > 100 nM
IC50 (second compound 0.316 µM): > 100 nM
IC50 (second compound 1 µM): > 100 nM
IC50 (second compound 3.16 µM): < 0.316 nM
viability, T/C (second compound 0.0316 µM, first compound 0.000316 µM): 98.3%
viability, T/C (second compound 0.0316 µM, first compound 0.001 µM): 93.3%
viability, T/C (second compound 0.0316 µM, first compound 0.00316 µM): 84.3%
viability, T/C (second compound 0.0316 µM, first compound 0.01 µM): 85.5%
viability, T/C [1]: 86.8%
viability, T/C [2]: 74.9%
viability, T/C (second compound 0.1 µM, first compound 0.000316 µM): 93.7%
viability, T/C (second compound 0.1 µM, first compound 0.001 µM): 96.9%
viability, T/C (second compound 0.1 µM, first compound 0.00316 µM): 83.6%
viability, T/C (second compound 0.1 µM, first compound 0.01 µM): 80.3%
viability, T/C [7]: 74.3%
viability, T/C [8]: 75.9%
viability, T/C (second compound 0.316 µM, first compound 0.000316 µM): 94.8%
viability, T/C (second compound 0.316 µM, first compound 0.001 µM): 97.9%
viability, T/C (second compound 0.316 µM, first compound 0.00316 µM): 85.7%
viability, T/C (second compound 0.316 µM, first compound 0.01 µM): 85.7%
viability, T/C [13]: 79.2%
viability, T/C [14]: 68%
viability, T/C (second compound 1 µM, first compound 0.000316 µM): 84.4%
viability, T/C (second compound 1 µM, first compound 0.001 µM): 82.8%
viability, T/C (second compound 1 µM, first compound 0.00316 µM): 68.6%
viability, T/C (second compound 1 µM, first compound 0.01 µM): 75.2%
viability, T/C [19]: 70.2%
viability, T/C [20]: 58.8%
viability, T/C (second compound 3.16 µM, first compound 0.000316 µM): 0.16%
viability, T/C (second compound 3.16 µM, first compound 0.001 µM): 0.14%
viability, T/C (second compound 3.16 µM, first compound 0.00316 µM): 2.18%
viability, T/C (second compound 3.16 µM, first compound 0.01 µM): 1.01%
viability, T/C [25]: 0.72%
viability, T/C [26]: 0.18%
